Data reported in article PMC7932537, “Quantitative profiling of protease specificity” (PLoS Computational Biology, 2021).

Key:
MMP-2 = assay: Substrate phage display with NGS: relative probability (RP) of P3-P1' tetramer clusters; assay type: biochemical, human; settings: for relative probability (RP) of matching tetramer: P3-P1' tetramer matching the MS detected MMP2 cleavage sequence, RP_above_4.5; for avg_RP: MMP2 - no binning
MMP-9 = assay: as above; assay type: biochemical, human
[1] = normalized RP of matching tetramer, unique part of MMP2 selectome
[2] = RP of the P3-P1' tetramer, MMP2 substrate phage display/NGS, tetramers of physiologic MEROPS substrates common to MMP2 and MMP9
[3] = RP of the P3-P1' tetramer, MMP9 substrate phage display/NGS, tetramers of physiologic MEROPS substrates common to MMP2 and MMP9
[4] = RP of the P3-P1' tetramer cluster contained in the hexamer, 200 nM MMP-2, 2 h, 37°C, two rounds of selection
[5] = MMP9, RP of the P3-P1' tetramer contained in the hexamer substrate (substrate phage display, NGS)
[6] = RP according to MMP2, P3-P1' tetramer of unique physiologic MMP2 substrates from MEROPS
[7] = MMP2, RP of matching P3-P1' tetramer, common set of MMP2-9 selectome, RP above KL threshold
[8] = RP of matching tetramer, common MMP2-9 selectome
[9] = MMP9, RP of matching P3-P1' tetramer, common set of MMP2-9 selectome
[10] = MMP9, RP of the P3-P1' tetramer matching the MS detected cleavage, RP above 4.7, substrate phage display with NGS
[11] = RP of matching tetramer, common MMP2-9 selectome, RP above KL threshold
[12] = average relative probability of the P3-P1' tetramer, redundant tetramers have been averaged out

SAPL was tested, and the “relative probability (RP) of matching tetramer” value (MMP-2) was 18.44, the “relative probability (RP) (acc.to MMP2)” value (MMP-2; RP of matching tetramer, unique part of MMP2 selectome, RP above KL threshold) was 18.44 and the “normalized RP - MMP2” value (MMP-2; [1]) was 0.5049. The “relative probability (RP) (acc.to MMP9)” value (MMP-9; RP of matching tetramer, unique part of MMP2 selectome) was 2.49 and the “normalized RP - MMP9” value (MMP-9; [1]) was 0.04754.
For PSGL, the “relative probability (RP) (acc.to MMP2)” value (MMP-2; [2]) was 35.5 and the “relative probability (RP) (acc.to MMP9)” value (MMP-9; [3]) was 47.39.
In the case of NPQNIR, the “relative probability (RP)” value (MMP-2; [4]) is reported as 27.128 and the “relative probability (RP)” value (MMP-9; [5]) is reported as 44.0295.
For PQPLDL, the “relative probability (RP)” value (MMP-2; [4]) was 30.3595 and the “relative probability (RP)” value (MMP-9; [5]) was 47.1306.
KSPSRL was tested, and the “relative probability (RP)” value (MMP-2; [4]) was 31.7732 and the “relative probability (RP)” value (MMP-9; [5]) was 39.8157.
With LAGL [P3-P1' tetramer cluster] the “MMP2 relative probability (RP)” value (MMP-2; MMP2 tetramers from unique substrates, unrounded values) was 32.2383, the “Relative probability (RP) rank” value (MMP-2; [6]) was 174 and the “relative probability (RP)” value (MMP-2; [6]) was 32.24. For the same substance, the relative_probability (MMP-2; tetramer clusters unique to the MMP-2 selectome, MMP-2 RP) was 32.24 and the “corresponding MMP9 relative probability (RP)” value (MMP-9; MMP2 tetramers from unique substrates, RP of same tetramer for MMP9) was 1.413.
For IPLASL, the “relative probability (RP)” value (MMP-2; [4]) was 31.1996 and the “relative probability (RP)” value (MMP-9; [5]) was 34.6637.
With PNSM the “relative probability (RP) (acc.to MMP2)” value (MMP-2; [7]) was 14.95, the “relative probability (RP) of matching tetramer” value (MMP-2) was 14.95 and the “relative probability (RP) (acc.to MMP2)” value (MMP-2; [8]) was 14.95. For the same substance, the “relative probability (RP) (acc.to MMP9)” value (MMP-9; [9]) was 27.58, the “relative probability (RP)” value (MMP-9; [10]) was 27.58 and the “relative probability (RP) (acc.to MMP9)” value (MMP-9; [11]) was 27.58.
For NEGL, the “relative probability (RP) (acc.to MMP2)” value (MMP-2; [2]) was 0.16 and the “relative probability (RP) (acc.to MMP9)” value (MMP-9; [3]) was 0.
In the case of KSPQSY, the “relative probability (RP)” value (MMP-2; [4]) is reported as 26.1515 and the “relative probability (RP)” value (MMP-9; [5]) is reported as 42.416.
For EGPAGL, the “relative probability (RP)” value (MMP-2; [4]) was 36.0156 and the “relative probability (RP)” value (MMP-9; [5]) was 47.2274.
With AHNLSS the “relative probability (RP)” value (MMP-2; [4]) was 23.7113 and the “relative probability (RP)” value (MMP-9; [5]) was 29.6602.
For GPAGIR, the “relative probability (RP)” value (MMP-2; [4]) was 33.3207 and the “relative probability (RP)” value (MMP-9; [5]) was 45.1083.
TPAAMT was tested, and the “relative probability (RP)” value (MMP-2; [4]) was 33.3115 and the “relative probability (RP)” value (MMP-9; [5]) was 48.1518.
For AAAI, the “relative probability (RP) (acc.to MMP2)” value (MMP-2; [7]) was 25.49, the “relative probability (RP) of matching tetramer” value (MMP-2) was 25.49 and the “relative probability (RP) (acc.to MMP9)” value (MMP-9; [9]) was 15.73.
For PLAV, the “relative probability (RP) (acc.to MMP2)” value (MMP-2; [7]) was 29.15, the “relative probability (RP) of matching tetramer” value (MMP-2) was 29.15 and the “relative probability (RP) (acc.to MMP2)” value (MMP-2; [8]) was 29.15. For the same substance, the “relative probability (RP) (acc.to MMP9)” value (MMP-9; [9]) was 44.77, the “relative probability (RP)” value (MMP-9; [10]) was 44.77 and the “relative probability (RP) (acc.to MMP9)” value (MMP-9; [11]) was 44.77.
For PLSL, the avg_RP (MMP-2; [12]) was 33.5282, the “relative probability (RP) (acc.to MMP2)” value (MMP-2; [8]) was 33.53 and the “relative probability (RP)” value (MMP-9; [10]) was 48.17. For the same substance, the “relative probability (RP) (acc.to MMP9)” value (MMP-9; [11]) was 48.17.
In the case of PSGD, the “relative probability (RP) (acc.to MMP2)” value (MMP-2; [2]) is reported as 0.16 and the “relative probability (RP) (acc.to MMP9)” value (MMP-9; [3]) is reported as 0.48.
In the case of PTGL, the avg_RP (MMP-2; average relative probability of the tetramer, redundant tetramers averaged out) is reported as 33.1098, the “relative probability (RP) (acc.to MMP2)” value (MMP-2; [2]) is reported as 33.11 and the “relative probability (RP) (acc.to MMP9)” value (MMP-9; [3]) is reported as 39.89.
For PLTL, the avg_RP (MMP-2; [12]) was 24.2603, the “relative probability (RP) (acc.to MMP2)” value (MMP-2; [7]) was 24.26 and the “relative probability (RP) of matching tetramer” value (MMP-2) was 24.26. The “relative probability (RP) (acc.to MMP2)” value (MMP-2; [8]) was 24.26, the “relative probability (RP) (acc.to MMP9)” value (MMP-9; [9]) was 41.2 and the “relative probability (RP)” value (MMP-9; [10]) was 41.2. For the same substance, the “relative probability (RP) (acc.to MMP9)” value (MMP-9; [11]) was 41.2.
With DGPVSF the “relative probability (RP)” value (MMP-2; [4]) was 24.4524 and the “relative probability (RP)” value (MMP-9; [5]) was 25.1636.
With PVNMTD the “relative probability (RP)” value (MMP-2; [4]) was 30.0312 and the “relative probability (RP)” value (MMP-9; [5]) was 44.4072.
In the case of INPQGL, the “relative probability (RP)” value (MMP-2; [4]) is reported as 33.5241 and the “relative probability (RP)” value (MMP-9; [5]) is reported as 47.8621.
For GQPMNL, the “relative probability (RP)” value (MMP-2; [4]) was 32.5586 and the “relative probability (RP)” value (MMP-9; [5]) was 48.9575.
